From ChEMBL document CHEMBL6092179, “Discovery of CLKs inhibitors for the treatment of non-small cell lung cancer” (Eur J Med Chem, 2024)
Active and inactive are the calls of the source. No cut-off for these calls is given here.

Columns and labels:
[1] = system: NCI-H1299; assay: Induction of apoptosis in human NCI-H1299 cells assessed as early apoptotic cells at 1 uM incubated for 24 hrs by annexin V-FITC/PI staining based flow cytometric analysis (reference value: 0.49 %); format: functional
[2] = molecular target: T1, Dual specificity protein kinase CLK4 (Homo sapiens, UniProt Q9HAZ1); assay: Inhibition of CLK4 (unknown origin) at 100 nM by ADP-Glo assay relative to control
Target sequence in this assay (Q9HAZ1 whole entry, looked up): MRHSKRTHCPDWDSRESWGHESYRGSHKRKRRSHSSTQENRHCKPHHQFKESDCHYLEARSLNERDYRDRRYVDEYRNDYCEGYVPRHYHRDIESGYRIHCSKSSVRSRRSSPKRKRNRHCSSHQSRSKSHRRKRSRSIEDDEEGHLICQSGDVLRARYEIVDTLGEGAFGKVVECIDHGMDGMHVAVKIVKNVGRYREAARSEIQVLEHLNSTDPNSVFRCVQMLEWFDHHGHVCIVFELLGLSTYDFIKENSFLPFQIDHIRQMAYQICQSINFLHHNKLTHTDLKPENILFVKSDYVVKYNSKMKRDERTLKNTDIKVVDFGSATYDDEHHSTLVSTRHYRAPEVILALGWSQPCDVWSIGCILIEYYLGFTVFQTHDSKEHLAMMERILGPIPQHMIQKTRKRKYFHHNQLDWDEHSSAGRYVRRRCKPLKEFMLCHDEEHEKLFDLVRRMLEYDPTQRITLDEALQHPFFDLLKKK

[3] = system: Osimertinib-resistant NCI-H1975 cell; assay: cells; conditions: Homo sapiens, 48 h
Description: Antiproliferative activity against human Osimertinib-resistant NCI-H1975 cell assessed as inhibition of cell growth incubated for 48 hrs by MTT assay

[4] = system: NCI-H1299; assay: Induction of apoptosis in human NCI-H1299 cells assessed as necrotic cells at 0.5 uM incubated for 24 hrs by annexin V-FITC/PI staining based flow cytometric analysis (reference value: 2.28 %); format: functional
[5] = molecular target: T2, Dual specificity protein kinase CLK1 (Homo sapiens, UniProt P49759); assay: Inhibition of CLK1 (unknown origin) by ADP-Glo assay
Target sequence in this assay (P49759 whole entry): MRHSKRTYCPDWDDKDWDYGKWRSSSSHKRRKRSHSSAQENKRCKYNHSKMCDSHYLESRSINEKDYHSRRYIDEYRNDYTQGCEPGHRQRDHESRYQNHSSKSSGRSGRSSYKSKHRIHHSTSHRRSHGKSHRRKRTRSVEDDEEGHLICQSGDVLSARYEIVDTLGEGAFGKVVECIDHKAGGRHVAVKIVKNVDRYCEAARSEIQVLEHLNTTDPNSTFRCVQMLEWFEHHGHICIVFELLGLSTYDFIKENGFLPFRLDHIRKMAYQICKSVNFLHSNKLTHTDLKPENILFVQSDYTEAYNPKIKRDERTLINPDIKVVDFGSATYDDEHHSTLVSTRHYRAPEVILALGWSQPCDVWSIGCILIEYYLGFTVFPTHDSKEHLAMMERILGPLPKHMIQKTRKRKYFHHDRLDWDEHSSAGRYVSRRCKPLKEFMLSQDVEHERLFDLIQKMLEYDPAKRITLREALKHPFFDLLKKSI

[6] = system: NCI-H1299; assay: Inhibition of colony formation in human NCI-H1299 cells incubated for 7 days by crystal violet staining based analysis; format: functional, cell-based; conditions: time 7.0 day
[7] = molecular target: Homeodomain-interacting protein kinase 1 (Homo sapiens) (UniProt Q86Z02); assay: Inhibition of HIPK1 (unknown origin) at 100 nM by ADP-Glo assay relative to control
[8] = system: NCI-H1299; assay: Induction of apoptosis in human NCI-H1299 cells assessed as viable cells at 0.1 uM incubated for 24 hrs by annexin V-FITC/PI staining based flow cytometric analysis (reference value: 95 %); format: functional; conditions: read-out: Activity
[9] = molecular target: Dual specificity tyrosine-phosphorylation-regulated kinase 1B (Homo sapiens) (UniProt Q9Y463); assay: Inhibition of DYRK1B (unknown origin) at 100 nM by ADP-Glo assay relative to control
[10] = system: NCI-H1299; assay: Induction of apoptosis in human NCI-H1299 cells assessed as necrotic cells at 2.5 uM incubated for 24 hrs by annexin V-FITC/PI staining based flow cytometric analysis (reference value: 2.28 %); format: functional
[11] = system: NCI-H1299; assay: Inhibition of AKT phosphorylation in human NCI-H1299 cells at 0.1 to 1 uM incubated for 12 hrs by Western blotting analysis; format: cell-based; conditions: dose 0.1-1 µM
[12] = system: NCI-H1299; assay: Induction of apoptosis in human NCI-H1299 cells assessed as necrotic cells at 0.1 uM incubated for 24 hrs by annexin V-FITC/PI staining based flow cytometric analysis (reference value: 2.28 %); format: functional
[13] = system: NCI-H1299; assay: Induction of apoptosis in human NCI-H1299 cells assessed as viable cells at 0.5 uM incubated for 24 hrs by annexin V-FITC/PI staining based flow cytometric analysis (reference value: 95 %); format: functional; conditions: read-out: Activity
[14] = system: NCI-H1299; assay: Induction of apoptosis in human NCI-H1299 cells assessed as early apoptotic cells at 2.5 uM incubated for 24 hrs by annexin V-FITC/PI staining based flow cytometric analysis (reference value: 0.49 %); format: functional
[15] = system: A549; assay: cells; conditions: Homo sapiens, A549, 48 h
Description: Antiproliferative activity against human A549 cells assessed as inhibition of cell growth incubated for 48 hrs by MTT assay

[16] = system: NCI-H1975; assay: cells; conditions: Homo sapiens, NCI-H1975, 48 h
Description: Antiproliferative activity against human NCI-H1975 cells assessed as inhibition of cell growth incubated for 48 hrs by MTT assay

[17] = system: NCI-H1299; assay: Induction of apoptosis in human NCI-H1299 cells at 0.1 to 2.5 uM incubated for 24 hrs by annexin V-FITC/PI staining based flow cytometric analysis relative to control; format: functional; conditions: dose 0.1-2.5 µM
[18] = system: NCI-H1299; assay: Induction of apoptosis in human NCI-H1299 cells assessed as downregulation of ERK expression incubated for 48 hrs by Western blotting analysis; format: functional, cell-based
[19] = system: NCI-H1299; assay: Induction of autophagy in human NCI-H1299 cells assessed as effect on LC3II protein expression at 0.1 to 1 uM incubated for 48 hrs by Western blotting analysis; format: functional, cell-based; conditions: dose 0.1-1 µM
[20] = system: NCI-H1299; assay: Induction of apoptosis in human NCI-H1299 cells assessed as downregulation of BCL-2 expression at 0.1 to 1 uM incubated for 48 hrs by Western blotting analysis; format: functional, cell-based; conditions: dose 0.1-1 µM
[21] = molecular target: Dual specificity protein kinase CLK3 (Homo sapiens, UniProt P49761); assay: Inhibition of CLK3 (unknown origin) at 100 nM by ADP-Glo assay relative to control
[22] = system: NCI-H1299; assay: Inhibition of Wnt pathway in human NCI-H1299 cells assessed as downregulation of c-Myc expression at 0.1 to 1 uM incubated for 48 hrs by Western blotting analysis; format: cell-based; conditions: dose 0.1-1 µM
[23] = molecular target: T2, Dual specificity protein kinase CLK1; assay: Inhibition of CLK in human NCI-H1299 cells assessed as downregulation of SRSF4 phosphorylation at 0.1 to 1 uM incubated for 1 hr by Western blotting analysis; format: cell-based; conditions: dose 0.1-1 µM
Target sequence in this assay (P49759 whole entry, looked up): as the sequence (P49759 whole entry) above

[24] = system: NCI-H1299; assay: Induction of apoptosis in human NCI-H1299 cells assessed as downregulation of mTOR expression incubated for 12 hrs by Western blotting analysis; format: functional, cell-based
[25] = system: NCI-H1299; assay: Induction of apoptosis in human NCI-H1299 cells assessed as late apoptotic cells at 0.5 uM incubated for 24 hrs by annexin V-FITC/PI staining based flow cytometric analysis (reference value: 2.23 %); format: functional
[26] = system: NCI-H1299; assay: Induction of apoptosis in human NCI-H1299 cells assessed as viable cells at 0.25 uM incubated for 24 hrs by annexin V-FITC/PI staining based flow cytometric analysis (reference value: 95 %); format: functional; conditions: read-out: Activity
[27] = system: NCI-H1299; assay: Induction of apoptosis in human NCI-H1299 cells assessed as early apoptotic cells at 0.5 uM incubated for 24 hrs by annexin V-FITC/PI staining based flow cytometric analysis (reference value: 0.49 %); format: functional
[28] = system: NCI-H1299; assay: Induction of apoptosis in human NCI-H1299 cells assessed as necrotic cells at 1 uM incubated for 24 hrs by annexin V-FITC/PI staining based flow cytometric analysis (reference value: 2.28 %); format: functional
[29] = system: NCI-H1299; assay: Induction of apoptosis in human NCI-H1299 cells assessed as viable cells at 2.5 uM incubated for 24 hrs by annexin V-FITC/PI staining based flow cytometric analysis (reference value: 95 %); format: functional; conditions: read-out: Activity
[30] = cells; conditions: Homo sapiens, Osimertinib-resistant HCC827AR cell, 48 h
Description: Antiproliferative activity against human Osimertinib-resistant HCC827AR cell assessed as inhibition of cell growth incubated for 48 hrs by MTT assay

[31] = system: NCI-H1299; assay: cells; conditions: Homo sapiens, NCI-H1299, 48 h
Description: Antiproliferative activity against human NCI-H1299 cells assessed as inhibition of cell growth incubated for 48 hrs by MTT assay

[32] = molecular target: T1, Dual specificity protein kinase CLK4; assay: Inhibition of CLK4 (unknown origin) by ADP-Glo assay
Target sequence in this assay (Q9HAZ1 whole entry): as the sequence (Q9HAZ1 whole entry, looked up) above

[33] = system: NCI-H1299; assay: Induction of apoptosis in human NCI-H1299 cells assessed as late apoptotic cells at 1 uM incubated for 24 hrs by annexin V-FITC/PI staining based flow cytometric analysis (reference value: 2.23 %); format: functional
[34] = system: NCI-H1299; assay: Induction of apoptosis in human NCI-H1299 cells assessed as downregulation of MCL-1 expression at 0.1 to 1 uM incubated for 48 hrs by Western blotting analysis; format: functional, cell-based; conditions: dose 0.1-1 µM
[35] = system: NCI-H1299; assay: Induction of apoptosis in human NCI-H1299 cells assessed as late apoptotic cells at 0.25 uM incubated for 24 hrs by annexin V-FITC/PI staining based flow cytometric analysis (reference value: 2.23 %); format: functional
[36] = molecular target: T2, Dual specificity protein kinase CLK1; assay: Inhibition of CLK in human NCI-H1299 cells assessed as downregulation of SRSF5 phosphorylation at 0.1 to 1 uM incubated for 1 hr by Western blotting analysis; format: cell-based; conditions: dose 0.1-1 µM
Target sequence in this assay (P49759 whole entry, looked up): as the sequence (P49759 whole entry) above

Sequence of Dual specificity protein kinase CLK3 (P49761 whole entry, looked up): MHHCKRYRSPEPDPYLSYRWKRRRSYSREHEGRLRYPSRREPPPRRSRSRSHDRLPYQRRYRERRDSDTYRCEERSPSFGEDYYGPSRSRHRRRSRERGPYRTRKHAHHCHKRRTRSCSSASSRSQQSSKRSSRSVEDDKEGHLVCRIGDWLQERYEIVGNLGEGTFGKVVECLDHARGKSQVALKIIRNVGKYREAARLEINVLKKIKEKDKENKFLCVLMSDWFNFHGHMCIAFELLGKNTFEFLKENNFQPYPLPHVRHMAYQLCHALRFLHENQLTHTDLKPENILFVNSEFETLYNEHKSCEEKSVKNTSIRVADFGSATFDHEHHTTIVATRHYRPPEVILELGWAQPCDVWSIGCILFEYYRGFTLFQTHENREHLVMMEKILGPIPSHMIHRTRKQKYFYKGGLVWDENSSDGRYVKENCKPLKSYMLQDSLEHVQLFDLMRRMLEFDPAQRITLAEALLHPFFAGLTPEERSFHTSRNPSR
Sequence of Homeodomain-interacting protein kinase 1 (Homo sapiens) (Q86Z02 whole entry, looked up): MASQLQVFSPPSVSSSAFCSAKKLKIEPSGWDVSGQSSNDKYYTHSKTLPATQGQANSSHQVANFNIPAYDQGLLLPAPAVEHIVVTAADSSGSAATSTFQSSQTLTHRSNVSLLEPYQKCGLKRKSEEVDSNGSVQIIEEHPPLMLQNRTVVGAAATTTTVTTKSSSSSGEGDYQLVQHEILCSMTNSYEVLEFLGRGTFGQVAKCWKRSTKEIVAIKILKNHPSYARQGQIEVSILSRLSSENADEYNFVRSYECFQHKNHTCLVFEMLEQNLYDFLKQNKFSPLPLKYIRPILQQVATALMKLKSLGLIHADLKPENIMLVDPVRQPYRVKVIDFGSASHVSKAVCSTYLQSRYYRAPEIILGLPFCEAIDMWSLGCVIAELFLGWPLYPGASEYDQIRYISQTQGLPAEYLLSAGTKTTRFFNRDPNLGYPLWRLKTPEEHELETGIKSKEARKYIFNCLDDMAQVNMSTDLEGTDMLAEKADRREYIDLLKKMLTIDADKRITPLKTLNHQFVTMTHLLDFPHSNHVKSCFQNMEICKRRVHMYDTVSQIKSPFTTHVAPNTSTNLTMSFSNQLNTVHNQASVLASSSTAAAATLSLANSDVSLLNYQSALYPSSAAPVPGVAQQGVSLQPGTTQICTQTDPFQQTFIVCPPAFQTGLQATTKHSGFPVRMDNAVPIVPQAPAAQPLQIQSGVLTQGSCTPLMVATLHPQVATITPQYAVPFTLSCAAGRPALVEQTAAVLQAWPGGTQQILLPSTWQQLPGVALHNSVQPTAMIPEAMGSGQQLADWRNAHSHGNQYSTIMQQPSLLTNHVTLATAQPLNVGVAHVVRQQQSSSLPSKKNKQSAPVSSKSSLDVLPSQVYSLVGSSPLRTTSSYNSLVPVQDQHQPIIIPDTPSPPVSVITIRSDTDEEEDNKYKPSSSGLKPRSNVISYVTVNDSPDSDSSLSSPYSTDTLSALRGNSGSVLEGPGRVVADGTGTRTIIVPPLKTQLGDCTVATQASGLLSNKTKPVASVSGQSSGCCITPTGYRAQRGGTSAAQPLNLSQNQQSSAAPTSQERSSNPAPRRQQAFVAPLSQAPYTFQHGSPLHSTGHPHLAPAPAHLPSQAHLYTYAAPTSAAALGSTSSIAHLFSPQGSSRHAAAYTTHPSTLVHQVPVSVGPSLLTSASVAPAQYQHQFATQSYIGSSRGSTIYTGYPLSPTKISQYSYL
Sequence of Dual specificity tyrosine-phosphorylation-regulated kinase 1B (Homo sapiens) (Q9Y463 whole entry, looked up): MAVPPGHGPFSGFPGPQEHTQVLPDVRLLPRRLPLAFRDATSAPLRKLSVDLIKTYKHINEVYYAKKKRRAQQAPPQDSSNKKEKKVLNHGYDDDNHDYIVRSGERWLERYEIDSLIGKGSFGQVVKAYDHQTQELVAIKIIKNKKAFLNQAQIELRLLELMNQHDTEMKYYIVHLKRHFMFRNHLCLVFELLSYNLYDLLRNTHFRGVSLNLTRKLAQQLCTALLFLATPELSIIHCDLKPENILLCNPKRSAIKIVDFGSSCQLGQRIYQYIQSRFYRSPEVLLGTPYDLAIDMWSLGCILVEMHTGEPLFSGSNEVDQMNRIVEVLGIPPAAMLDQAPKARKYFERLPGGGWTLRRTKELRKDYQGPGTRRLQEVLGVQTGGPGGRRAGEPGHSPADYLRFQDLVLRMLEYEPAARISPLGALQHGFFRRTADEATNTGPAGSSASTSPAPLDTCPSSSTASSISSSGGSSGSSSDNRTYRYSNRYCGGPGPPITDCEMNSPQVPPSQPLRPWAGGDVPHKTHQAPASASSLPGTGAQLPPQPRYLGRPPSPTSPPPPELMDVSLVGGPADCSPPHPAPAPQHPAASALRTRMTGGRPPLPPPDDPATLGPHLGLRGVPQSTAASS

Work on `FC1(F)CCN(Cc2cncc(-c3ccc4[nH]nc(-c5nc(-c6ccco6)c(-c6ccco6)[nH]5)c4c3)c2)C1` yielded an Activity [1] of 9.75%, an inhibition [2] of 95% and an IC50 [3] of 210 nM. For the same compound, the Activity [4] was 0.89%, the IC50 [5] was 4.6 nM and the inhibition [6] was “Dose-dependent-effect”. The inhibition [7] was 51.4%, the viability at 0.1 µM [8] was 96.2% and the inhibition [9] was 84.4%. The Activity [10] was 1.6%, the inhibition [11] was “Active” and the Activity [12] was 1.1%. The viability at 0.5 µM [13] was 85.7%, the Activity [14] was 9.7% and the IC50 [15] was 170 nM. For the same compound, the IC50 [16] was 150 nM, the Activity [17] was 3.7% and the Activity [18] was “Dose-dependent-effect”. For the same compound, the Activity [19] was “Active”, the Activity [20] was “Active” and the inhibition [21] was 103%. For the same compound, the inhibition [22] was “Active”, the inhibition [23] was “Active; Showed Stronger Inhibition Compared To Indazole 1” and the Activity [24] was “Dose-dependent-effect”. For the same compound, the Activity [25] was 5.16%, the viability at 0.25 µM [26] was 92.1% and the Activity [27] was 8.27%. The Activity [28] was 0.74%, the viability at 2.5 µM [29] was 82% and the IC50 [30] was 220 nM. The IC50 [31] was 130 nM, the IC50 [32] was 7.3 nM and the Activity [33] was 5.23%. The Activity [34] was “Active”, the Activity [35] was 2.55% and the inhibition [36] was “Active; Showed Stronger Inhibition Compared To Indazole 1”.
